These are literature values, as cited in US20010012851A1, “NITRIC OXIDE RELEASING OXINDOLE PRODRUGS FOR ANAGESIC, ANTI-INFLAMMATORY AND DISEASE-MODIFYING USE” (priority 1999, published 2001).

For series [1] the following is noted: acute and chronic administration; versus parent NSAID.
The conditions of series [2]: animal models of acute and chronic inflammation; versus parent NSAID.
The conditions of series [3]: rat; for healing of experimental gastric ulcers (healing rate): daily treatment, Elliott et al. 1995.
The conditions of series [4]: rat.

On to `O=C(Cc1ccccc1Nc1c(Cl)cccc1Cl)OCCCCO[N+](=O)[O-]` [diclofenac nitroxybutylester, diclofenac-4-nitroxybutylester], for which, in series [1], the gastric injury result is “markedly less gastric injury”. The anti-inflammatory activity result in series [2] is “comparable to that of their parent NSAIDs”. Also, the “healing of experimental gastric ulcers (healing rate)” value (“healing … (healing rate)” for short) in series [3] is “accelerated”.
Regarding `O=C(O)Cc1ccccc1Nc1c(Cl)cccc1Cl` [diclofenac], the “healing … (healing rate)” value in series [3] is given as “no effect”.
As to `CC(C(=O)OCCCCO[N+](=O)[O-])c1ccc(-c2ccccc2)c(F)c1` (stereo not shown) [flurbiprofen nitroxybutylester], in series [1], the gastric injury entry was “markedly less gastric injury”. For the same compound, the anti-inflammatory activity result in series [2] was “comparable to that of their parent NSAIDs”. In addition, in series [4] (in vivo), the mitochondrial damage result was “associated with mitochondrial damage in vivo”. Also, the “macroscopic damage in the small intestine” value in series [4] (versus flurbiprofen) is recorded as “significantly less macroscopic damage”.
Turning to `O=[N+]([O-])OCC(CO[N+](=O)[O-])O[N+](=O)[O-]` [glyceryl trinitrate], in series [3], the “healing … (healing rate)” value was “accelerated”. The “healing of experimental gastric ulcers” value in series [3] (earlier knowledge on the NO donor) is “significantly accelerated”.
As for `CC(C(=O)OCCCCO[N+](=O)[O-])c1cccc(C(=O)c2ccccc2)c1` (stereo not shown) [ketoprofen nitroxybutylester], the gastric injury entry in series [1] is on record as “markedly less gastric injury”. The anti-inflammatory activity result in series [2] is given as “comparable to that of their parent NSAIDs”.
`COc1ccc2cc(CCC(C)=O)ccc2c1` [nabumetone]: in series [3], the “healing … (healing rate)” value is “no effect”.
